Data reported in publication PMC4453016, “Novel Bifunctional Cyclic Chelator for ^89Zr Labeling–Radiolabeling and Targeting Properties of RGD Conjugates” (Molecular Pharmaceutics, 2015).
Several values for one entry are separate records, joined by “and”; a condition that tells them apart may be missing. Equal entries are not always repeated.

How the values were obtained:
[1] = Protein binding assay in fresh human serum (size exclusion spin column); conditions: 37 °C, incubation time 168 h
[2] = Transchelation study with 1000-fold molar excess of TAFC or DFO (RP-HPLC); type: physicochemical; conditions: for % intact starting species by incubation time: RT, n = 3
Procedure: [^89Zr]DFO and [^89Zr]TAFC (50 μL each) were mixed with a 1000-fold molar excess of either TAFC or DFO for 7 days at RT. At selected time points aliquots of the solutions were analyzed directly via RP-HPLC. ([^89Zr]DFO tR = 4.8 min; [^89Zr]TAFC tR = 5.9 min). The transchelation was determined by the ratio of [^89Zr]DFO and [^89Zr]TAFC. Three replicates were analyzed for each radioligand.

[3] = Distribution coefficient (logD), octanol/PBS; conditions: pH 7.4
[4] = Stability assay in 1000-fold molar excess of EDTA solution (ITLC); type: physicochemical; conditions: for transchelation in EDTA solution: 1000-fold molar excess of EDTA; for % intact starting species by incubation time: competitor EDTA 1000-fold excess, 37 °C, n = 3
Procedure: (§1) Determination of the stability of [^89Zr]DFO, [^89Zr]TAFC, and [^89Zr]FSC-RGD conjugates was carried out by incubating the radioligands in PBS, 1000-fold molar excess of EDTA solution with different pH (pH 7 and pH 6; radioligand vs EDTA: 25 μM vs 25 mM) as well as in human serum for 7 days at 37 °C, respectively. At selected time points three aliquots of PBS and EDTA solution were analyzed directly via ITLC, while the three serum aliquots were mixed with 500 μL of CH3CN, vortexed, and centrifuged at 20,000 rcf for 2 min prior to analysis.

[5] = Stability assay in PBS and human serum; type: physicochemical; conditions: period of 7 days, 37 °C; no demetalation was observed
Procedure: as §1

[6] = Biodistribution of [^89Zr]TAFC in healthy mice; type: in vivo, BALB/c mice; conditions: normal mice, i.v., 6 h p.i., n = 4
Procedure: For the evaluation of biodistribution, four healthy female BALB/c mice (Charles River Laboratories, Sulzfeld, GER) were intravenously injected with [^89Zr]TAFC (∼1.5 MBq/mouse, ∼4 μg of precursor) into the tail vein and sacrificed at 6 h postinjection (p.i.). For the evaluation of tumor uptake of [^89Zr]FSC(succ-RGD)3 female, athymic BALB/c nude mice (Charles River Laboratories) were used. For the induction of tumor xenografts mice were injected subcutaneously with 5 × 10^6 αvβ3 integrin positive M21 cells into the right hind limb and with 5 × 10^6 αvβ3 integrin negative M21-L cells (negative control) into the left hind limb of the same mouse (n = 4). The tumors were allowed to grow until they had reached a volume of 0.3 to 0.6 cm^3. On the day of the experiment [^89Zr]FSC(succ-RGD)3 (∼0.5 MBq/mouse, ∼0.5 μg of peptide) was intravenously injected in the lateral tail vein. Mice were sacrificed by cervical dislocation at 1, 2, and 4 h after injection. Organs (spleen, pancreas, stomach, intestine, kidney, liver, heart, and lung), blood, muscle tissue, bone, and tumors were dissected and weighted. As a comparison, four tumor-bearing mice were intravenously injected in the tail vein with [^68Ga]FSC(succ-RGD)3 (∼0.5 MBq/mouse, ∼0.5 μg of precursor) and sacrificed at 1 h p.i. Activity of the different samples was measured in the gamma counter. Results were expressed as percentage of injected dose per gram tissue (% ID/g).

Row | Structure (SMILES) | protein binding (%) [1] [%] | logD [3] | transchelation in EDTA solution ([4]; pH 7, after 7 days, ITLC) | % intact starting species by incubation time ([4]; pH 6, 1 h) [%] | % intact starting species by incubation time ([4]; pH 6, 4 h) [%] | % intact starting species by incubation time ([4]; pH 6, 1 d) [%] | % intact starting species by incubation time ([4]; pH 6, 3 d) [%] | % intact starting species by incubation time ([4]; pH 6, 5 d) [%] | % intact starting species by incubation time ([4]; pH 7, 1 h) [%] | % intact starting species by incubation time ([4]; pH 7, 4 h) [%] | % intact starting species by incubation time ([4]; pH 7, 1 d) [%] | % intact starting species by incubation time ([4]; pH 7, 3 d) [%] | % intact starting species by incubation time ([4]; pH 7, 5 d) [%] | % intact starting species by incubation time ([4]; pH 7, 7 d) [%] | stability in PBS and human serum [5] | other results
1 | CC(=O)N(O)CCCCCNC(=O)CCC(=O)N(O)CCCCCNC(=O)CCC(=O)N(O)CCCCCN [[^89Zr]DFO, desferrioxamine B, metal not drawn, reference compound] | 8.7 ± 1.0 | -3 | ~60% | 94.6 ± 0.4 | 63.5 ± 3.6 | 38.2 ± 8.4 | 6.4 ± 2.0 | 6.0 ± 1.8 | 95.5 ± 0.5 | 76.0 ± 1.0 | 55.4 ± 3.2 | 41.0 ± 5.2 | 43.3 ± 2.5 | 42.2 ± 2.3 | high stability | % intact starting species by incubation time ([2]; competitor TAFC 1000-fold excess, pH 6, 1 h): 0.0 ± 0.0%; fraction transchelated in 1000-fold molar excess of TAFC ([2]; within 1 h): 100%; transchelation in EDTA solution ([4]; pH 6, after 3 days): more than 90%
2 | CC(=O)NC1CCCN(O)C(=O)/C=C(/C)CCOC(=O)C(NC(C)=O)CCCN(O)C(=O)/C=C(/C)CCOC(=O)C(NC(C)=O)CCCN(O)C(=O)/C=C(/C)CCOC1=O (centres unmarked) [[^89Zr]TAFC, triacetylfusarinine C, metal not drawn] | 6.8 ± 0.5 | -2 | no transchelation | 99.0 ± 0.1 | 98.1 ± 0.2 | 96.0 ± 0.6 | 94.7 ± 0.3 | 95.9 ± 0.3 | 99.6 ± 0.1 | 99.6 ± 0.1 | 99.3 ± 0.2 | 96.9 ± 0.3 | 98.3 ± 0.1 | 97.2 ± 0.2 | high stability | blood activity [6]: 0.05 ± 0.01 % ID/g; renal retention (kidney) [6]: 0.86 ± 0.48 % ID/g; uptake of bone [6]: 0.04 ± 0.02 % ID/g; % intact starting species by incubation time ([2]; competitor DFO 1000-fold excess, pH 6, 1 h): 96.7 ± 0.2%; % intact starting species by incubation time ([2]; competitor DFO 1000-fold excess, pH 6, 4 h): 91.9 ± 0.3%; % intact starting species by incubation time ([2]; competitor DFO 1000-fold excess, pH 6, 1 d): 74.2 ± 3.0%; % intact starting species by incubation time ([2]; competitor DFO 1000-fold excess, pH 6, 3 d): 53.0 ± 4.1%; % intact starting species by incubation time ([2]; competitor DFO 1000-fold excess, pH 6, 5 d): 43.3 ± 3.5%; % intact starting species by incubation time ([2]; competitor DFO 1000-fold excess, pH 6, 7 d): 40% and 39.8 ± 2.0%; transchelation in an EDTA challenging experiment ([4]; after 7 days): 3–5%; % intact starting species by incubation time ([4]; pH 6, 7 d): 94.4 ± 0.5%
